Laboratory results: US9302991B2, “Arylamide derivatives as TTX-S blockers” (RaQualia Pharma Inc., priority 2010, dated 2016)

target: T1, human Nav1.7 channels (Homo sapiens, UniProt Q15858); test: FRET assay, human Nav1.7 (EFS on FDSS); format: cell-based; conditions: CHO cells expressing human Nav1.7, read-out: IC50 against Nav1.7
T1 construct: expressed in transfected cells; host or cells: CHO
In short: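 CHO cells stably expressing the channel, loaded with CC2-DMPE (10 µM) then DiSBAC2(3) (15 µM) plus VABSC-1, in HEPES-buffered saline pH 7.4 at room temperature. Electrical field stimulation on FDSS; FRET ratio at 440 nm fitted for IC50.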

T1 sequence (Q15858 whole entry): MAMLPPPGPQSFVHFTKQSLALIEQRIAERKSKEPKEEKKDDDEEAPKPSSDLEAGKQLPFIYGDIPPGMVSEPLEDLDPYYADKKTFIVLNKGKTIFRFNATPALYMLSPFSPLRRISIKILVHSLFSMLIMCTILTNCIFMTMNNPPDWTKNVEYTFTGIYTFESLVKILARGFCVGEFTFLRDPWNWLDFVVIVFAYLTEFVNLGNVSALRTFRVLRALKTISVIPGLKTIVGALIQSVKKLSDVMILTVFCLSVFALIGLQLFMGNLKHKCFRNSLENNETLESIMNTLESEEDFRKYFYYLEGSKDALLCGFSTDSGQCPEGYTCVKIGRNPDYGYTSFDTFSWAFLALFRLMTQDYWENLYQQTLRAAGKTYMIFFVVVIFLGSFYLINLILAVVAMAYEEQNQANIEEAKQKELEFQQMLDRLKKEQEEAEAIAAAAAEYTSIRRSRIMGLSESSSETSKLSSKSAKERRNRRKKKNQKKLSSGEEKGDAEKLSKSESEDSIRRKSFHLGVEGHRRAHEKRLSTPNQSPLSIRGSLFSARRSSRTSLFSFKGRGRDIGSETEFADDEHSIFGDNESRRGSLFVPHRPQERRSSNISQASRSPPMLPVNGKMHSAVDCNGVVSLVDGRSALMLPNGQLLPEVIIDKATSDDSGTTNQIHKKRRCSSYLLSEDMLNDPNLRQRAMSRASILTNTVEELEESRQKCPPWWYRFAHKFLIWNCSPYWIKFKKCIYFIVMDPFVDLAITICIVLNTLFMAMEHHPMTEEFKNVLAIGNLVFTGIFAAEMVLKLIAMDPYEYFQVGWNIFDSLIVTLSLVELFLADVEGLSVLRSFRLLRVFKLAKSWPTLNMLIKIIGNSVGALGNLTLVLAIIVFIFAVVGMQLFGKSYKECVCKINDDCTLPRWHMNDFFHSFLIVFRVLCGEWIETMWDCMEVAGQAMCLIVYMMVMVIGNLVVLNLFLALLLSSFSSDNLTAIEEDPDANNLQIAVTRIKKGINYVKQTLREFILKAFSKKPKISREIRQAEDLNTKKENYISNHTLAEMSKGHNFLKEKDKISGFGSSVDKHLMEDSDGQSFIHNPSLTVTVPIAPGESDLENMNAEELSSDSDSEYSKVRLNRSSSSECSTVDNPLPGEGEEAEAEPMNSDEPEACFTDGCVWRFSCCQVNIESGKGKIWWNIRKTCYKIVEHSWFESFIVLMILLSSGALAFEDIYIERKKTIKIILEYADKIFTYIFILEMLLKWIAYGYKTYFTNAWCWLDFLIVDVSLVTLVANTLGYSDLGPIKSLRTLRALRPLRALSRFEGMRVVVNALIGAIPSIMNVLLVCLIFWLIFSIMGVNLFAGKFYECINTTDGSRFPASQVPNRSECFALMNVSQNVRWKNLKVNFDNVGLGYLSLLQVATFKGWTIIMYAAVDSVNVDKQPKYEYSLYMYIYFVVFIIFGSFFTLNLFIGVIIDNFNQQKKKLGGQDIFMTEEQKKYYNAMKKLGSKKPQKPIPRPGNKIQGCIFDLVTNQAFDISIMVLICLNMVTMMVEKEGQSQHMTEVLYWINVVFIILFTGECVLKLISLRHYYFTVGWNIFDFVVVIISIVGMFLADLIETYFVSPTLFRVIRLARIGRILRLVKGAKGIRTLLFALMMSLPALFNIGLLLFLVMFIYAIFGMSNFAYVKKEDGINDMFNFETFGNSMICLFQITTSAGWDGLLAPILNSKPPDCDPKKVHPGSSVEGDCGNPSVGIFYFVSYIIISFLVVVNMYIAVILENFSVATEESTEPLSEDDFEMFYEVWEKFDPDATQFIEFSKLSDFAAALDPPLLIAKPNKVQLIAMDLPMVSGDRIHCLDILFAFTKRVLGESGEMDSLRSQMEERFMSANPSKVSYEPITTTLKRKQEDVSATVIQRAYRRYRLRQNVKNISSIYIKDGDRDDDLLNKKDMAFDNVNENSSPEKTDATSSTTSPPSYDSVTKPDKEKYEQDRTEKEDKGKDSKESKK

IC50, < 1 µM:
COc1nc(OCC(F)(F)F)ccc1CNC(=O)c1cc(C)nc(NC(=O)C(C)C)n1 [Example 374, 2-isobutyramido-N-((2-methoxy-6-(2,2,2-trifluoroethoxy)pyridin-3-yl)methyl)-6-methylpyrimidine-4-carboxamide]
O=C(NCc1cccc(OCC(F)(F)F)n1)c1cccc2[nH]c(=O)[nH]c12 [Example 57, 2-oxo-N-((6-(2,2,2-trifluoroethoxy)pyridin-2-yl)methyl)-2,3-dihydro-1H-benzo[d]imidazole-4-carboxamide]
COc1cc(CNC(=O)c2cc(C)nc(NC(=O)C(C)C)c2)ccc1OCC(F)(F)F [Example 885, 2-isobutyramido-N-(3-methoxy-4-(2,2,2-trifluoroethoxy)benzyl)-6-methylisonicotinamide]
Cc1cc(C(=O)NC(C)c2ccc(OCC(F)F)c(C)c2)nc(NC(=O)C2CC2)n1 (single isomer, unassigned) [Example 1075, 2-(cyclopropanecarboxamido)-N-(1-(4-(2,2-difluoroethoxy)-3-methylphenyl)ethyl)-6-methylpyrimidine-4-carboxamide]
CC(=O)Nc1cc(C(=O)NCc2cc(F)c(OCC(F)(F)F)nc2C)cc(C)n1 [Example 312, 2-acetamido-N-((5-fluoro-2-methyl-6-(2,2,2-trifluoroethoxy)pyridin-3-yl)methyl)-6-methylisonicotinamide]
CCOc1nc(OCC(F)(F)F)ccc1CNC(=O)c1ccnc(NC(=O)CC)c1 [Example 333, N-((2-ethoxy-6-(2,2,2-trifluoroethoxy)pyridin-3-yl)methyl)-2-propionamidoisonicotinamide]
CC(=O)Nc1cc(C(=O)NCc2cnc(OCC(F)(F)F)c(C)c2)ccn1 [Example 367, 2-acetamido-N-((5-methyl-6-(2,2,2-trifluoroethoxy)pyridin-3-yl)methyl)isonicotinamide]
CCC(=O)Nc1cc(C(=O)NCc2ccc(OCC(F)(F)F)nc2N2CCCCC2)ccn1 [Example 303, N-((2-(piperidin-1-yl)-6-(2,2,2-trifluoroethoxy)pyridin-3-yl)methyl)-2-propionamidoisonicotinamide]
Cc1cc(C(=O)NC(C)c2cnc(OCC(F)(F)F)c(Cl)c2)cc(NC(=O)C(C)C)n1 (single isomer, unassigned) [Example 521, N-(1-(5-chloro-6-(2,2,2-trifluoroethoxy)pyridin-3-yl)ethyl)-2-isobutyramido-6-methylisonicotinamide]
CC(=O)Nc1cc(C(=O)NCc2cccc(C(F)(F)F)c2)cc(C)n1 [Example 532, 2-acetamido-6-methyl-N-(3-(trifluoromethyl)benzyl)isonicotinamide]
CC(=O)Nc1cc(C(=O)NCc2cnc(OCC(F)F)c(Cl)c2)cc(C)n1 [Example 706, 2-acetamido-N-((5-chloro-6-(2,2-difluoroethoxy)pyridin-3-yl)methyl)-6-methylisonicotinamide]
CC(=O)Nc1cc(C(=O)NC(C)c2cnc(OCC(F)(F)F)c(C)c2)cc(C)n1 (single isomer, unassigned) [Example 379, 2-acetamido-6-methyl-N-(1-(5-methyl-6-(2,2,2-trifluoroethoxy)pyridin-3-yl)ethyl)isonicotinamide]
Cc1cc(C(=O)NC(C)c2ccc(OCC(F)F)c(Cl)c2)cc(NC(=O)C(C)C)n1 (single isomer, unassigned) [Example 1101, N-(1-(3-chloro-4-(2,2-difluoroethoxy)phenyl)ethl)-2-isobutyramido-6-methylisonicotinamide]
CC(=O)Nc1cc(C(=O)NCc2ccc(OCC(F)(F)F)nc2N2CCCCC2)ccn1 [Example 302, 2-acetamido-N-((2-(piperidin-1-yl)-6-(2,2,2-trifluoroethoxy)pyridin-3-yl)methyl)isonicotinamide]
Cc1cc(C(=O)NC(C)c2ccc(OCC(F)(F)F)nc2)cc(NC(=O)C2CC2)n1 (single isomer, unassigned) [Example 61, 2-(cyclopropanecarboxamido)-6-methyl-N-(1-(6-(2,2,2-trifluoroethoxy)pyridin-3-yl)ethyl)isonicotinamide]
COc1cc(OC(F)(F)F)ccc1CNC(=O)c1cc(C)nc(NC(=O)C(C)C)c1 [Example 871, 2-isobutyramido-N-(2-methoxy-4-(trifluoromethoxy)benzyl)-6-methylisonicotinamide]
CC(=O)Nc1cc(C(=O)NC(C)c2cccc(SC(F)(F)F)c2)cc(C)n1 (single isomer, unassigned) [Example 1031, 2-acetamido-6-methyl-N-(1-(3-((trifluoromethyl)thio)phenyl)ethyl)isonicotinamide]
CC(C)C(=O)Nc1cc(C(=O)NC(C)c2ccc(OCC(F)(F)F)cc2)ccn1 (single isomer, unassigned) [Example 562, 2-isobutyramido-N-(1-(4-(2,2,2-trifluoroethoxy)phenyl)ethyl)isonicotinamide]
Cc1cc(C(=O)NCc2cccc(OCC(F)F)c2C)cc(NC(=O)C(C)C)n1 [Example 1131, N-(3-(2,2-difluoroethoxy)-2-methylbenzyl)-2-isobutyramido-6-methylisonicotinamide]
COc1nc(OCC(F)F)ccc1C(C)NC(=O)c1ccnc(NC(=O)C2CC2)c1 (single isomer, unassigned) [Example 1162, 2-(cyclopropanecarboxamido)-N-(1-(6-(2,2-difluoroethoxy)-2-methoxypyridin-3-yl)ethyl)isonicotinamide]
CC(=O)Nc1cc(C(=O)N[C@H](C)c2cccc(C(F)(F)F)c2)cc(C)n1 (single isomer, unassigned) [Example 529]
CCCC(=O)Nc1cc(C(=O)NC(C)c2cnc(OCC(F)F)c(C)c2)ccn1 (single isomer, unassigned) [Example 633, 2-butyramido-N-(1-(6-(2,2-difluoroethoxy)-5-methylpyridin-3-yl)ethyl)isonicotinamide]
CC(=O)Nc1cc(C(=O)NC(C)c2ccc(OCC(C)(F)F)nc2)cc(C)n1 (single isomer, unassigned) [Example 783, 2-acetamido-N-(1-(6-(2,2-difluoropropoxy)pyridin-3-yl)ethyl)-6-methylisonicotinamide]
Cc1cc(C(=O)NCc2cccc(C(F)(F)F)c2Cl)cc(NC(=O)C(C)C)n1 [Example 878, N-(2-chloro-3-(trifluoromethyl)benzyl)-2-isobutyramido-6-methylisonicotinamide]
CCC(=O)Nc1cc(C(=O)NCc2cnc(OCC(F)(F)F)cc2C)cc(C)n1 [Example 179, 2-methyl-N-((4-methyl-6-(2,2,2-trifluoroethoxy)pyridin-3-yl)methyl)-6-propionamidoisonicotinamide]
Cc1cc(C(=O)NC(C)c2ccc(OCC(F)(F)C(F)(F)F)nc2)cc(NC(=O)C(C)C)n1 (single isomer, unassigned) [Example 693, 2-isobutyramido-6-methyl-N-(1-(6-(2,2,3,3,3-pentafluoropropoxy)pyridin-3-yl)ethyl)isonicotinamide]
CCCC(=O)Nc1cc(C(=O)NC(C)c2cnc(OCC(F)(F)C(F)F)c(C)c2)ccn1 (single isomer, unassigned) [Example 928, 2-butyramido-N-(1-(5-methyl-6-(2,2,3,3-tetrafluoropropoxy)pyridin-3-yl)ethyl)isonicotinamide]
CCC(=O)Nc1cc(C(=O)NC(C)c2ccc(OCC(F)(F)F)nc2)cc(C)n1 (single isomer, unassigned) [Example 60, 2-methyl-6-propionamido-N-(1-(6-(2,2,2-trifluoroethoxy)pyridin-3-yl)ethyl)isonicotinamide]
Cc1cc(C(=O)NCc2ccc(OCC(F)F)c(Cl)c2)cc(NC(=O)C(C)C)n1 [Example 1003, N-(3-chloro-4-(2,2-difluoroethoxy)benzyl)-2-isobutyramido-6-methylisonicotinamide]
CC(NC(=O)c1ccnc(NC(=O)C2CC2)n1)c1ccc(OCC(F)(F)F)cc1 (single isomer, unassigned) [Example 405, 2-(cyclopropanecarboxamido)-N-(1-(4-(2,2,2-trifluoroethoxy)phenyl)ethyl)pyrimidine-4-carboxamide]
CCC(=O)Nc1cc(C(=O)NC(C)c2ccc(OCC(F)F)nc2OC)ccn1 (single isomer, unassigned) [Example 1161, N-(1-(6-(2,2-difluoroethoxy)-2-methoxypyridin-3-yl)ethyl)-2-propionamidoisonicotinamide]
CCCC(=O)Nc1cc(C(=O)NC(C)c2ccc(OCC(C)(F)F)nc2)ccn1 (single isomer, unassigned) [Example 787, 2-butyramido-N-(1-(6-(2,2-difluoropropoxy)pyridin-3-yl)ethyl)isonicotinamide]
CCC(=O)Nc1cc(C(=O)NC(C)c2cnc(OCC(F)F)c(C)c2)ccn1 (single isomer, unassigned) [Example 552, N-(1-(6-(2,2-difluoroethoxy)-5-methylpyridin-3-yl)ethyl)-2-propionamidoisonicotinamide]
Cc1nc(OCC(F)(F)F)ccc1CNC(=O)c1ccnc(NC(=O)C2CC2)n1 [Example 407, 2-(cyclopropanecarboxamido)-N-((2-methyl-6-(2,2,2-trifluoroethoxy)pyridin-3-yl)methyl)pyrimidine-4-carboxamide]
